Measured values from patent US11286251B2, “Matrix metalloproteinase inhibitors and imaging agents, and methods using same” (Yale University, priority 2016, dated 2022).
“Also recorded” adds a separate entry of the source. Read-outs that look alike come from different tables or passages of the source.

Tests used:
rhMMP-9 = rhMMP-9 (Homo sapiens, UniProt P14780); assay: MMP inhibition assay, fluorogenic substrate cleavage (Ki)
Description: (§1) MMP inhibition assays were carried out in 50 mM Tris/HCl buffer, pH=6.8, 10 mM CaCl2 at 25° C. […] Titration experiments were carried out to determine active enzyme concentration for each MMP prior to the assay.
(§2) The recombinant human MMPs including rhMMP-2, rhMMP-9, and rhMMP-12 obtained from R&D Systems (Minneapolis, Minn., USA) were activated by 1 mM p-aminophenylmercuric acetate (APMA, Sigma) at 37° C. for certain hours according to the manufacturer's instructions. The activated MMPs were diluted in the assay buffer consisting of 50 mM Tris, 10 mM CaCl2, 150 mM NaCl, 0.05% Brij-35 (w/v), pH 7.5 (TCNB). The assays were carried out in 96-well non-binding surface black microplates (Fisher Scientific).
(§3) The solutions were incubated at room temperature for 20 min. 10 μL of the fluorogenic MMP substrate i.e. Mca-KPLGL-Dpa-AR-NH2 (R&D Systems) at 4 different concentrations (such as 50.0 μM, 40.0 μM, 30.0 μM, and 20.0 μM) in assay buffer were added before starting the fluorescence measurements. […] The inhibition constants (Ki) of the inhibitor with MMPs were calculated from the mean velocity values using GraphPad Prism 6 by the equation:

rhMMPs = assay: In vitro MMP binding screens (panel); details: several MMPs
Description: (§4) MMPs were purchased from R&D Systems (Minneapolis, Minn.). MMP inhibition assays were carried out in 50 mM Tris/HCl buffer, pH=6.8, 10 mM CaCl2 at 25° C. […] Titration experiments were carried out to determine active enzyme concentration for each MMP prior to the assay. For each probe, the % of inhibition was determined from five different concentrations in triplicates, chosen to reach a range of 20-80% inhibition.
as §2
(§5) The solutions were incubated at room temperature for 20 min. 10 μL of the fluorogenic MMP substrate i.e. Mca-KPLGL-Dpa-AR-NH2 (R&D Systems) at 4 different concentrations (such as 50.0 μM, 40.0 μM, 30.0 μM, and 20.0 μM) in assay buffer were added before starting the fluorescence measurements. The kinetics (v) of fluorescence changes were measured at excitation and emission wavelengths of 320 nm and 405 nm for 30 min (1.44 min intervals, sensitivity 100, shaking intensity 4, duration 30 s) by a fluorescent plate reader (BIO-TEK/Synergy HT). The inhibition constants (Ki) of the inhibitor with MMPs were calculated from the mean velocity values using GraphPad Prism 6 by the equation:

Aqueous solubility = format: physicochemical
rhMMP-12 = rhMMP-12 (Homo sapiens, UniProt P39900); assay: MMP inhibition assay, fluorogenic substrate cleavage (Ki)
Description: as §4, §2, §5

rhMMP-2 = target: T1, rhMMP-2 (Homo sapiens, UniProt P08253); assay: as above
T1 sequence (P08253 110-660): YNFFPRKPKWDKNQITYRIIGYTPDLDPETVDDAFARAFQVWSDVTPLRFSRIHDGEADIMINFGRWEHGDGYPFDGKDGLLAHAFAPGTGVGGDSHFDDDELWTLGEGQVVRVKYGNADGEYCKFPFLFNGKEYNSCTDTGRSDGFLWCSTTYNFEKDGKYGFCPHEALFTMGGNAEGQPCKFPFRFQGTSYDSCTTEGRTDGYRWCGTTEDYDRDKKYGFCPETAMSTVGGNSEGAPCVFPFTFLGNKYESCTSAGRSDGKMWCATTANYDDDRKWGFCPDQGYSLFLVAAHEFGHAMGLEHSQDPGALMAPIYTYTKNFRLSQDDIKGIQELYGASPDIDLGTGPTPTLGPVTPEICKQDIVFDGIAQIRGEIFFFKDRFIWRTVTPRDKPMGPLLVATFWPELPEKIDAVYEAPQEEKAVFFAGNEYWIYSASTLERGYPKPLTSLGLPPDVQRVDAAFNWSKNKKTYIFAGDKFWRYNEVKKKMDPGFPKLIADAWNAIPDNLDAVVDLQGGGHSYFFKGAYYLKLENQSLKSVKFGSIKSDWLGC
Description: as §1, §2, §3

rhMMP-13 = rhMMP-13 (Homo sapiens, UniProt P45452); assay: as above; details: read-out: Ki rhMMP-13; mean ± SE
Description: as §4, §2, §5

rhMMP-7 = target: T2, rhMMP-7 (Homo sapiens, UniProt P09237); assay: as above; details: read-out: Ki rhMMP-7; mean ± SE
T2 sequence (P09237 95-267): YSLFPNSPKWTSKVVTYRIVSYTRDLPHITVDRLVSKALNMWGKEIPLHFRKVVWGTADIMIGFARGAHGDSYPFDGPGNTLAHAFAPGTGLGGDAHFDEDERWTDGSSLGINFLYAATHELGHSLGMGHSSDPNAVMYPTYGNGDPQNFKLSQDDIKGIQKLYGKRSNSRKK
Description: as §4, §2, §5

[1] = read-out: Ki rhMMP-9, mean ± SE
[2] = read-out: Ki rhMMP-12, mean ± SE
[3] = read-out: Ki rhMMP-2, mean ± SE

Sequence of rhMMP-12 (P39900 106-470): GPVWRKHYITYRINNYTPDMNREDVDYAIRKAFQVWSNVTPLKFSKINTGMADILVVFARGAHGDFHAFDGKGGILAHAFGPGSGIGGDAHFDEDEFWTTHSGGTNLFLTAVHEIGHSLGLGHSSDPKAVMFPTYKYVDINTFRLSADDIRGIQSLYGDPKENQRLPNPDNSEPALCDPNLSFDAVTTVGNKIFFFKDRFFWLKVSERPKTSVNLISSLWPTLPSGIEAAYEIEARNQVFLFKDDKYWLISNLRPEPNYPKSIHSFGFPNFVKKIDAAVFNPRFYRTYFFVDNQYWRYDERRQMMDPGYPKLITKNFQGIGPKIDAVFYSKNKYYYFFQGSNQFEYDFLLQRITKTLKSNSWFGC
Sequence of rhMMP-9 (P14780 107-707 limits assumed): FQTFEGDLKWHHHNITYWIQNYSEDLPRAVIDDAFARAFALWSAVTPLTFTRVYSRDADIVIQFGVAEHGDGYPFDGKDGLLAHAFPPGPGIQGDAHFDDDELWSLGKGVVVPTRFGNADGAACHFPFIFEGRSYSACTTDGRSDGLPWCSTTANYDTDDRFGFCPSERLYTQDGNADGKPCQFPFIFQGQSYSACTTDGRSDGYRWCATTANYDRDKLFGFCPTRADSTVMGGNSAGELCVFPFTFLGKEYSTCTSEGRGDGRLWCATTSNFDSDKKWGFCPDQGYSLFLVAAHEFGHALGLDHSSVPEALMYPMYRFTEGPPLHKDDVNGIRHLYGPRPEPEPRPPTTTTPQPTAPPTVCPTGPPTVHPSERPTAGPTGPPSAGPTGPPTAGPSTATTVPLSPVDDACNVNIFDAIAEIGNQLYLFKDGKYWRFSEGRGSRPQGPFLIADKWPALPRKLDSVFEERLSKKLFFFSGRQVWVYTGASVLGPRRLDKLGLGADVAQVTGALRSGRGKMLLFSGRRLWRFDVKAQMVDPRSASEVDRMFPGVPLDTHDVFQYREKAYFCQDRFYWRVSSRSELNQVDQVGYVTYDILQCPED

What does the source list for `CC(C)CC1C(=O)NC(C(=O)NC(CCCNC(=N)N)C(=O)NCCNC(=O)c2ccc(NN)nc2)Cc2ccc(cc2)OCCCC1C(=O)NO` [Compound 1, (6S,7R,10S)—N^10—((S)-5-guanidino-1-((2-(6-hydrazinylnicotinamido)ethyl)amino)-1-oxopentan-2-yl)-N^6-hydroxy-7-isobutyl-8-oxo-2-oxa-9-aza-1(1,4)-benzenacycloundecaphane-6,10-dicarboxamide]?
affinity for rhMMP-9 (in words) (rhMMP-9): high affinity; Ki (rhMMP-9; [1]): 17.4 ± 2.1 nM; MMP binding / inhibition constants (in words) (rhMMPs): MMP binding profiles similar to the RP805 precursor; also recorded: nanomolar range inhibition constants; water solubility (in words) (Aqueous solubility): good aqueous solubility; also recorded: good water solubility; affinity for rhMMP-12 (in words) (rhMMP-12): high affinity; Ki (rhMMP-12; [2]): 2.2 ± 0.5 nM; affinity for rhMMP-2 (in words) (rhMMP-2): high affinity; Ki (rhMMP-2; [3]): 10.4 nM; Ki (rhMMP-13): 16.9 ± 2.7 nM; Ki (rhMMP-7): 33.2 ± 5 nM

With `CC(C)CC1C(=O)NC(C(=O)NCCOCCOCCOCCF)Cc2ccc(cc2)OCCCC1C(=O)NO` [Compound 17, (6S,7R,10S)—N10-(2-(2-(2-(2-fluoroethoxy)ethoxy)ethoxy)ethyl)-N^6-hydroxy-7-isobutyl-8-oxo-2-oxa-9-aza-1(1,4)-benzenacycloundecaphane-6,10-dicarboxamide] as the compound, how does the Ki (rhMMP-9; [1]) read?
The Ki was 8.8 ± 0.8 nM.

And the Ki (rhMMP-12; [2])?
The Ki was 2.1 ± 0.3 nM.

And the Ki (rhMMP-2; [3])?
The Ki was 8.6 ± 1.3 nM.

With `CNC(=O)[C@H](CCCNC(=N)N)NC(=O)[C@@H]1Cc2ccc(cc2)OCCC[C@H](C(=O)NO)[C@@H](CC(C)C)C(=O)N1` [Compound 19, (6S,7R,10S)—N10-((S)-5-guanidino-1-(methylamino)-1-oxopentan-2-yl)-N6-hydroxy-7-isobutyl-8-oxo-2-oxa-9-aza-1(1,4)-benzenacycloundecaphane-6,10-dicarboxamide] as the compound, how does the Ki (rhMMP-9; [1]) read?
The Ki was 20.4 ± 2 nM.

And the “MMP binding / inhibition constants (in words)” value (rhMMPs)?
The value was “MMP binding profiles similar to the RP805 precursor”.

What about the Ki (rhMMP-12; [2]) of the same compound?
The Ki was 1 ± 0.2 nM.

What about the Ki (rhMMP-2; [3]) of the same compound?
Its Ki is 5.8 ± 0.4 nM.

And the Ki (rhMMP-13)?
The Ki was 15.3 ± 5.4 nM.

What about the Ki (rhMMP-7) of the same compound?
The Ki was 17.1 ± 0.1 nM.

With `CC(C)C[C@H]1C(=O)N[C@H](C(=O)O)Cc2ccc(cc2)OCCC[C@@H]1C(=O)NO` [Compound 20, (6S,7R,10S)-6-(hydroxycarbamoyl)-7-isobutyl-8-oxo-2-oxa-9-aza-1(1,4)-benzenacycloundecaphane-10-carboxylic acid] as the compound, how does the Ki (rhMMP-9) read?
The Ki was 60.6 ± 11 nM.

And the Ki (rhMMP-12)?
The Ki was 1.7 ± 0.2 nM.

What about the Ki (rhMMP-2) of the same compound?
Its Ki is 101 ± 12.2 nM.

For `CNC(=O)[C@H](Cc1c[nH]c2ccccc12)NC(=O)[C@@H](CC(=O)NO)CC(C)C` [GM-6001, reference compound], which Ki (rhMMP-12) is on record?
Its Ki is 0.57 nM.

And the Ki (rhMMP-13)?
The Ki was 0.3 nM.

And the Ki (rhMMP-7)?
The Ki was 0.4 nM.
